Reference: ChEMBL document CHEMBL3044851, “Immunomodulatory active steroidal saponins from Asparagus racemosus” (Med Chem Res, 2013)
The source made the active and inactive calls. The calls are words filed in the database; no cut-off is given here.

How the values were obtained:
[1] = Immunomodulatory activity in Homo sapiens (human) PMN cells assessed as induction of phagocytosis using Candida albicans as an infectious organism at 1 uM after 1 hr by Giemsa staining based microscopic analysis (reference value: 27.33 +/-2.52%); format: functional
[2] = Cytotoxicity against Homo sapiens (human) PMN cells assessed as cell viability at 1 ug/ml by trypan blue dye exclusion test (reference value: 83.94 +/-5.05%); format: cell-based; settings: read-out: Activity
[3] = Cytotoxicity against Homo sapiens (human) PMN cells assessed as cell viability at 0.5 ug/ml by trypan blue dye exclusion test (reference value: 83.94 +/-5.05%); format: cell-based; settings: read-out: Activity
[4] = system: PMN; experiment: Immunomodulatory activity in Homo sapiens (human) PMN cells assessed as increase in NO release at 0.001 to 0.0075 ug/ml after 1 hr by ELISA plate reader analysis; format: functional, cell-based
[5] = Immunomodulatory activity in Homo sapiens (human) PMN cells assessed as induction of phagocytosis using Candida albicans as an infectious organism at 0.005 ug/ml after 1 hr by Giemsa staining based microscopic analysis (reference value: 27.33 +/-2.52%); format: functional
[6] = Cytotoxicity against Homo sapiens (human) PMN cells assessed as cell viability at 0.1 ug/ml by trypan blue dye exclusion test (reference value: 83.94 +/-5.05%); format: cell-based; settings: read-out: Activity
[7] = system: PMN; experiment: Immunomodulatory activity in Homo sapiens (human) PMN cells assessed as increase in reactive oxygen species formation at 0 min after luminal addition by chemiluminescence assay; format: functional, cell-based
[8] = Immunomodulatory activity in Homo sapiens (human) PMN cells assessed as induction of phagocytosis using Candida albicans as an infectious organism at 0.001 ug/ml after 1 hr by Giemsa staining based microscopic analysis (reference value: 27.33 +/-2.52%); format: functional
[9] = Immunomodulatory activity in Homo sapiens (human) PMN cells assessed as induction of phagocytosis using Candida albicans as an infectious organism at 0.0075 ug/ml after 1 hr by Giemsa staining based microscopic analysis (reference value: 27.33 +/-2.52%); format: functional
[10] = Cytotoxicity against Homo sapiens (human) PMN cells assessed as cell viability at 0.0075 ug/ml by trypan blue dye exclusion test (reference value: 83.94 +/-5.05%); format: cell-based; settings: read-out: Activity
[11] = Cytotoxicity against Homo sapiens (human) PMN cells assessed as cell viability at 0.001 ug/ml by trypan blue dye exclusion test (reference value: 83.94 +/-5.05%); format: cell-based; settings: read-out: Activity
[12] = system: PMN; experiment: Immunomodulatory activity in Homo sapiens (human) PMN cells assessed as increase in reactive oxygen species formation at 0.001 to 0.0075 ug/ml at 40 min after luminal addition by chemiluminescence assay; format: functional, cell-based
[13] = Cytotoxicity against Homo sapiens (human) PMN cells assessed as cell viability at 0.005 ug/ml by trypan blue dye exclusion test (reference value: 83.94 +/-5.05%); format: cell-based; settings: read-out: Activity
[14] = Cytotoxicity against Homo sapiens (human) PMN cells assessed as cell viability at 0.01 ug/ml by trypan blue dye exclusion test (reference value: 83.94 +/-5.05%); format: cell-based; settings: read-out: Activity
[15] = system: PMN; experiment: Immunomodulatory activity in Homo sapiens (human) PMN cells assessed as increase in superoxide species generation at 0.001 to 0.0075 ug/ml after 2 hr by NBT assay; format: functional, cell-based
[16] = system: PMN; experiment: Immunomodulatory activity in Homo sapiens (human) PMN cells assessed as increase in phagocytic index using Candida albicans as an infectious organism after 1 hr by Giemsa staining based microscopic analysis; format: functional, cell-based
[17] = system: PMN; experiment: Immunomodulatory activity in Homo sapiens (human) PMN cells assessed as increase in reactive oxygen species formation at 0.001 ug/ml at 40 min after luminal addition by chemiluminescence assay; format: functional, cell-based
[18] = system: PMN; experiment: Immunomodulatory activity in Homo sapiens (human) PMN cells assessed as increase in reactive oxygen species formation at 0.001 ug/ml at 0 min after luminal addition by chemiluminescence assay; format: functional, cell-based
[19] = system: PMN; experiment: Immunomodulatory activity in Homo sapiens (human) PMN cells assessed as increase in phagocytic index using Candida albicans as an infectious organism at 0.005 ug/ml after 1 hr by Giemsa staining based microscopic analysis; format: functional, cell-based
[20] = system: PMN; experiment: Immunomodulatory activity in Homo sapiens (human) PMN cells assessed as increase in NO release at 1 uM after 1 hr by ELISA plate reader analysis; format: functional, cell-based
[21] = system: PMN; experiment: Immunomodulatory activity in Homo sapiens (human) PMN cells assessed as increase in superoxide species generation at 1 uM after 2 hr by NBT assay; format: functional, cell-based
[22] = system: PMN; experiment: Immunomodulatory activity in Homo sapiens (human) PMN cells assessed as increase in reactive oxygen species formation at 1 uM at 40 min after luminal addition by chemiluminescence assay; format: functional, cell-based
[23] = system: PMN; experiment: Immunomodulatory activity in Homo sapiens (human) PMN cells assessed as increase in reactive oxygen species formation at 1 uM at 0 min after luminal addition by chemiluminescence assay; format: functional, cell-based

Compound | Activity [1] [%] | Activity [4] | Activity [5] [%] | Activity [8] [%] | Activity [9] [%] | viability at 0.0075 ug/ml [10] [%] | viability at 0.001 ug/ml [11] [%] | viability at 0.005 ug/ml [13] [%] | Activity [15] | also measured
C[C@H]1CC[C@@]2(OC1)O[C@H]1C[C@H]3[C@@H]4CC[C@@H]5C[C@@H](O[C@@H]6O[C@H](CO[C@@H]7O[C@@H](C)[C@H](O)[C@@H](O)[C@H]7O)[C@@H](O)[C@H](O)[C@H]6O[C@@H]6OC[C@H](O)[C@H](O)[C@H]6O)CC[C@]5(C)[C@H]4CC[C@]3(C)[C@H]1[C@@H]2C [SHATAVAROSIDE A] | 35 | Active | 29.33 | 32 | 23.5 | 100 | 100 | 100 | Active | viability at 1 ug/ml [2]: 76.2%; viability at 0.5 ug/ml [3]: 71.2%; viability at 0.1 ug/ml [6]: 71.7%; Activity [7]: Dose-dependent effect; Activity [12]: Active; viability at 0.01 ug/ml [14]: 72.3%; Activity [16]: Dose-dependent effect
C[C@H]1CC[C@@]2(OC1)O[C@H]1C[C@H]3[C@@H]4CC[C@@H]5C[C@@H](O[C@@H]6O[C@H](CO[C@@H]7O[C@@H](C)[C@H](O)[C@@H](O)[C@H]7O)[C@@H](O[C@@H]7OC[C@@H](O)[C@H](O)[C@H]7O)[C@H](O)[C@H]6O[C@@H]6O[C@H](CO)[C@@H](O)[C@H](O)[C@H]6O)CC[C@]5(C)[C@H]4CC[C@]3(C)[C@H]1[C@@H]2C [SHATAVAROSIDE B] | 35 | Active | 28.17 | 36.83 | 26.33 | 91 | 94.2 | 92.8 | Active | Activity [17]: Active; Activity [18]: Active; Activity [19]: Active
CCCCCCCCCCCCCC(=O)O[C@@H]1[C@@H](C)[C@@]2(O)[C@@H](C=C(CO)C[C@]3(O)C(=O)C(C)=C[C@@H]23)[C@@H]2C(C)(C)[C@]12OC(C)=O | – | – | – | – | – | – | – | – | – | Activity [20]: Active; Activity [21]: Active; Activity [22]: Active; Activity [23]: Active
